Measured values: US11491460B2, “Porous cyclodextrin polymeric materials and methods of making and using same” (Cornell University, priority 2015, dated 2022)
Where a name gives a salt, the structure may show the parent alone.

Columns and labels:
fish populations = settings: concentrations as low as; cited from earlier work
[1] = cited from earlier work; for Cs, solubility in water: experimental values
[2] = Micropollutant adsorption kinetics experiments on P-CDP; settings: P-CDP 10 mg/L, MP 1 μg/L
[3] = Micropollutant adsorption kinetics experiments on CCAC; settings: CCAC 10 mg/L, MP 1 μg/L
[4] = Batch adsorption kinetic studies of organic pollutants on P-CDP; settings: estimated from the equilibrium efficiency value from the batch kinetic studies
[5] = Langmuir parameters of pollutant adsorption on P-CDP (Table 6); format: binding
Excerpt: H. Thermodynamic studies of adsorption.
K (mol^−1) is the equilibrium constant.

[6] = 23° C., estimated at t=30 minutes

Compound	removal by P-CDP (in words) [2]	removal by CCAC (in words) [3]	further results
C#C[C@]1(O)CC[C@H]2[C@@H]3CCc4cc(O)ccc4[C@H]3CC[C@@]21C [ethinyl estradiol]	–	–	concentration that has caused the collapse of fish populations (fish populations): 5 pg/mL; pKa [1]: 10.4; Cs, solubility in water [1]: 2 µg/mL
O=C(O)COc1ccc(Cl)cc1Cl [2,4-D]	hardly removed	removed fairly well	kobs [2, 6]: 72.9 g/mg/min; kobs [3, 6]: 11.0 g/mg/min
COc1ccc2c3c1O[C@H]1C(=O)CC[C@H]4[C@@H](C2)N(C)CC[C@]314 [hydrocodone]	removed well	not effectively removed	–
CN1CC[C@]23c4c5ccc(O)c4O[C@H]2[C@@H](O)C=C[C@H]3[C@H]1C5 [morphine]	removed well	not effectively removed	–
CC(C)(C)NCC(O)c1ccc(O)c(CO)c1 (stereo not shown) [albuterol]	removed well	not effectively removed	–
CC(N)Cc1ccccc1 (stereo not shown) [amphetamine]	removed well	not effectively removed	–
CCc1cccc(C)c1N(C(=O)CCl)C(C)COC (stereo not shown) [metolachlor]	–	–	K, equilibrium constant [4]: ~35,000^c Mol^−1
CC(C)NCC(O)COc1cccc2ccccc12 (stereo not shown) [propranolol hydrochloride]	–	–	K, equilibrium constant [4]: ~72,000^c Mol^−1
O=S(=O)(c1ccc(O)cc1)c1ccc(O)cc1 [BPS, bisphenol S]	–	–	K, equilibrium constant [4]: ~17,000^c Mol^−1
CC(C)NCC(O)COc1cccc2ccccc12 (stereo not shown) [propranolol]	–	–	Cs, solubility in water [1]: 50 µg/mL
COc1ccc2c3c1O[C@H]1[C@@H](O)C=C[C@H]4[C@@H](C2)N(C)CC[C@@]341 [codeine]	removed well	not effectively removed	–
Oc1ccc2ccccc2c1 [2-NO, 2-naphthol]	–	–	K, equilibrium constant [4]: ~30,000^c Mol^−1
CC(C)NCC(O)COc1ccc(CC(N)=O)cc1 (stereo not shown) [atenolol]	removed well	not effectively removed	–
CC(C)NCC(O)COc1ccc(CC(=O)O)cc1 (stereo not shown) [atenolol acid]	removed well	not effectively removed	–
CC(C)(c1ccc(O)cc1)c1ccc(O)cc1 [BPA, Bisphenol A]	–	–	BPA/β-CD molar ratio at qmax,e [5]: 0.9; K, equilibrium constant ([5]; Langmuir): 56,500 Mol^−1; qmax,e, maximum adsorption capacity of pollutant on 1 g P-CDP at equilibrium ([5]; Langmuir): 88.5 mg/g
Oc1ccc(Cl)cc1Cl [DCP, 2,4-dichlorophenol]	–	–	K, equilibrium constant [4]: ~17,000^c Mol^−1
COc1ccc(C(CN(C)C)C2(O)CCCCC2)cc1 (stereo not shown) [venlafaxine]	removed well	not effectively removed	–
COc1cccc(C2(O)CCCCC2CN(C)C)c1 (stereo not shown) [tramadol]	removed well	not effectively removed	–
